23 compounds from patent publication US20250188084A1, “COMPOUNDS AND METHODS FOR MODULATING CDK9 ACTIVITY” (KRONOS BIO, INC., priority 2020, published 2025) can be followed below.

Experiment [1] addresses T1, CDK9 (Homo sapiens, UniProt P50750).
T1 construct: NCIH211 cells with endogenously tagged N-terminal CDK9-HiBit; endogenous in cells; host or cells: NCIH211 cells (endogenous CDK9 locus tagged with HiBit)
Briefly: CDK9 degradation by HiBit assay, NCIH211 cells. The experiment is classed as cell-based. The settings on record: NCIH211 cells with endogenously tagged N-terminal CDK9-HiBit, 24 hours incubation, read-out: HiBit-NCIH211.2 DC50. As to the method: (§1) Exemplary compounds of the invention were tested for degradation of CDK9. The compounds were tested in 10-dose DC50 duplicate mode with a 3-fold serial dilution starting at 10 μM by HiBit assay (Promega, Inc) as a direct measurement of CDK9 presence, with incubation time of 24 hours using either NCIH211 cells with endogenously tagged N-terminal CDK9-HiBit or NCIH1048 cells with endogenously tagged N-terminal CDK9-HiBit. A control compound (THAL-SNS-032, CAS 2139287-33-3) was tested in 10-dose DC50 mode with 3-fold serial dilution starting at 10 μM. Data was normalized to positive (medium only) and negative (cells with no treatment) controls and curve fits were analyzed with CDK9 as % response vs. log [compound concentration] using a 4-parameter logistic model by GraphPad software. For Table 2: A is <100, B is <1000 C is <10,000, D is >10,000 and ND is Not Determined.

Experiment [2] concerns the target T1, CDK9. Kind of experiment: CDK9 degradation by HiBit assay, NCIH1048 cells. Particulars: NCIH1048 cells with endogenously tagged N-terminal CDK9-HiBit, 24 hours incubation, read-out: HiBit-NCIH1048.3 DC50. The experiment is classed as cell-based. As for the experimental part:
as §1

Setting [3] is: numeric value (control compound).

T1 sequence (P50750 whole entry): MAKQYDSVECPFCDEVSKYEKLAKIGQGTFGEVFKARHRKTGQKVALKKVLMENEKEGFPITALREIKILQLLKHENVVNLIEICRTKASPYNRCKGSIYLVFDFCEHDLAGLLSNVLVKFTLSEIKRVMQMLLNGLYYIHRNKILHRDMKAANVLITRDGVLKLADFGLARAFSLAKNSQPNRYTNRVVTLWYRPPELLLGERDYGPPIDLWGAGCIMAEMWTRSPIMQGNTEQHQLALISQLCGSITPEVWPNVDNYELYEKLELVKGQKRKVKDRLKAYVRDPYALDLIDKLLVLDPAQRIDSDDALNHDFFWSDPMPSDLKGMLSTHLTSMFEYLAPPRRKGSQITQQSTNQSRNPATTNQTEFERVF
T1 sequence (O60563 whole entry partner): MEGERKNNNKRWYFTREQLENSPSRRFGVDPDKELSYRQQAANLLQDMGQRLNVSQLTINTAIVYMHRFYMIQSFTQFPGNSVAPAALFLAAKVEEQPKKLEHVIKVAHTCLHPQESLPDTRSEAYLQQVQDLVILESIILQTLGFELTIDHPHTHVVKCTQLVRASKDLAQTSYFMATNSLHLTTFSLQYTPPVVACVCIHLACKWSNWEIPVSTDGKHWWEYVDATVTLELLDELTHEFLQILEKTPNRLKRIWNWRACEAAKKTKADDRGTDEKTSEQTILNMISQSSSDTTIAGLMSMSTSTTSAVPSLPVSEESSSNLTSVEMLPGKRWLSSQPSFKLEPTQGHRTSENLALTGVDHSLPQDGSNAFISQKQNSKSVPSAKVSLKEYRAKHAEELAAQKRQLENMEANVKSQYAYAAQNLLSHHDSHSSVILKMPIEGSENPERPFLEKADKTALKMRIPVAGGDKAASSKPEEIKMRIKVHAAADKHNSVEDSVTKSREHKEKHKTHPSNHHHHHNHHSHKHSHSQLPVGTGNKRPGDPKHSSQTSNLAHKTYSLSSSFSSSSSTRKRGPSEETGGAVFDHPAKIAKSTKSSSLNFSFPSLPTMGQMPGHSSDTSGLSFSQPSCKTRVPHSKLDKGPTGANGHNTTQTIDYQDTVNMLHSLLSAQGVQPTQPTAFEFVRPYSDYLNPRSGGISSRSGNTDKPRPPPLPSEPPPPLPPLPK

With `CCC(CC)c1cc(N[C@H]2CC[C@H](NCC(=O)N3CCN(CCCNc4cccc5c4C(=O)N(C4CCC(=O)NC4=O)C5=O)CC3)C2)n2ncc(Cl)c2n1` (some centres unmarked) [Compound 50.0], the DC50 in experiment [1] and in experiment [2] was under 0.1 µM in each case. Consider `CCC(CC)c1cc(N[C@H]2CC[C@H](NCC(=O)NCCOCCOCCOCCNc3cccc4c3C(=O)N(C3CCC(=O)NC3=O)C4=O)C2)n2ncc(Cl)c2n1` (stereo partly drawn) [Compound 6.0, N-[2-[2-[2-[2-[[2-(2,6-dioxo-3-piperidyl)-1,3-dioxo-isoindolin-4-yl]amino]ethoxy]ethoxy]ethoxy]ethyl]-2-[[(1S,3S)-3-[[3-chloro-5-(1-ethylpropyl)pyrazolo[1,5-a]pyrimidin-7-yl]amino]cyclopentyl]amino]acetamide], for which the DC50 (commonly the midpoint of the concentration-degradation curve) in experiment [1] is under 1 µM; in experiment [2], under 0.1 µM. On the same counts, the results for `C/C=C(\CC)c1cc(N[C@H]2CC[C@H](NCC(=O)N3CCN(CCCCNc4cccc5c4C(=O)N(C4CCC(=O)NC4=O)C5=O)CC3)C2)n2nccc2n1` (some centres unmarked) [Compound 56.0] are under 0.1 µM and under 0.1 µM. On the same counts, the results for `C/C=C(\CC)c1cc(N[C@H]2CC[C@H](NCC(=O)N3CCN(CCCNc4cccc5c4C(=O)N(C4CCC(=O)NC4=O)C5=O)CC3)C2)n2ncc(Cl)c2n1` (stereo partly drawn) [Compound 57.0, 4-[3-[4-[2-[[(1S,3S)-3-[[3-chloro-5-[(E)-1-ethylprop-1-enyl]pyrazolo[1,5-a]pyrimidin-7-yl]amino]cyclopentyl]amino]acetyl]piperazin-1-yl]propylamino]-2-(2,6-dioxo-3-piperidyl)isoindoline-1,3-dione] are under 0.1 µM and under 0.1 µM. Turning to `C/C=C(\CC)c1cc(N[C@H]2CC[C@H](NCC(=O)N3CCN(CCCNc4cccc5c4C(=O)N(C4CCC(=O)NC4=O)C5=O)CC3)C2)n2nccc2n1` (stereo partly drawn) [Compound 21.0, 2-(2,6-dioxo-3-piperidyl)-4-[3-[4-[2-[[(1S,3S)-3-[[5-[(E)-1-ethylprop-1-enyl]pyrazolo[1,5-a]pyrimidin-7-yl]amino]cyclopentyl]amino]acetyl]piperazin-1-yl]propylamino]isoindoline-1,3-dione], the 50% degradation concentration (DC50) in experiment [1] and in experiment [2] was under 0.1 µM each time.

In the case of `CCC(CC)c1cc(N[C@H]2CC[C@H](NCC(=O)NCCCc3cn(CCOCCOCCOc4cc(-c5scnc5C)ccc4CNC(=O)[C@@H]4C[C@@H](O)CN4C(=O)[C@H](C(C)C)N4Cc5ccccc5C4=O)nn3)C2)n2ncc(Cl)c2n1` [Compound 51.0], the DC50 in experiment [1] and in experiment [2] was under 10 µM throughout.

In the case of `CCC(CC)c1cc(N[C@H]2CC[C@H](NCC(=O)N3CCN(CCCNc4cccc5c4C(=O)N(C4CCC(=O)NC4=O)C5=O)CC3)C2)n2nccc2n1` (some centres unmarked) [Compound 48.0], the results for the DC50 in experiment [1] and in experiment [2] were under 1 µM and under 0.1 µM, respectively.

For `CC(C)(C)c1cnc(CSc2cnc(NC(=O)C3CCN(CC(=O)NCCOCCOCCOCCNc4cccc5c4C(=O)N(C4CCC(=O)NC4=O)C5=O)CC3)s2)o1` (centres unmarked) [THAL-SNS-032, reference compound], the DC50 in experiment [1] (setting [3]) worked out at 0.053 µM; in experiment [2] (setting [3]) it was 0.011 µM.

With `C/C=C(\CC)c1cc(N[C@H]2CC[C@H](NCC(=O)N3CCN(CCCCNc4cccc5c4C(=O)N(C4CCC(=O)NC4=O)C5=O)CC3)C2)n2ncc(Cl)c2n1` (stereo partly drawn) [Compound 59.0, 4-[4-[4-[2-[[(1S,3S)-3-[[3-chloro-5-[(E)-1-ethylprop-1-enyl]pyrazolo[1,5-a]pyrimidin-7-yl]amino]cyclopentyl]amino]acetyl]piperazin-1-yl]butylamino]-2-(2,6-dioxo-3-piperidyl)isoindoline-1,3-dione], the 50% degradation concentration (DC50) in experiment [1] and in experiment [2] was under 0.1 µM in each case. For `CCC(CC)c1cc(N[C@H]2CC[C@H](NCCN3CCN(CCNc4cccc5c4C(=O)N(C4CCC(=O)NC4=O)C5=O)CC3)C2)n2nccc2n1` (stereo partly drawn) [Compound 19.0, 2-(2,6-dioxo-3-piperidyl)-4-[2-[4-[2-[[(1S,3S)-3-[[5-(1-ethylpropyl)pyrazolo[1,5-a]pyrimidin-7-yl]amino]cyclopentyl]amino]ethyl]piperazin-1-yl]ethylamino]isoindoline-1,3-dione], the 50% degradation concentration (DC50) in experiment [1] was under 10 µM. Turning to `CCC(CC)c1cc(N[C@H]2CC[C@H](NCC(C)N3CCN(CCNc4cccc5c4C(=O)N(C4CCC(=O)NC4=O)C5=O)CC3)C2)n2nccc2n1` (stereo partly drawn) [Compound 17.0, 2-(2,6-dioxo-3-piperidyl)-4-[2-[4-[2-[[(1S,3S)-3-[[5-(1-ethylpropyl)pyrazolo[1,5-a]pyrimidin-7-yl]amino]cyclopentyl]amino]-1-methyl-ethyl]piperazin-1-yl]ethylamino]isoindoline-1,3-dione], the DC50 in experiment [1] was under 10 µM.

`CCC(CC)c1cc(N[C@H]2CC[C@H](NCCOCCOCCOCCNc3cccc4c3C(=O)N(C3CCC(=O)NC3=O)C4=O)C2)n2nccc2n1` (stereo partly drawn) [Compound 7.0, 2-(2,6-dioxo-3-piperidyl)-4-[2-[2-[2-[2-[[(1S,3S)-3-[[5-(1-ethylpropyl)pyrazolo[1,5-a]pyrimidin-7-yl]amino]cyclopentyl]amino]ethoxy]ethoxy]ethoxy]ethylamino]isoindoline-1,3-dione]: in experiment [1], the DC50 is over 10 µM. On the same count and under the same terms, the value for `CCC(CC)c1cc(N[C@H]2CC[C@H](NCc3cn(CCOCC(=O)N[C@H](C(=O)N4C[C@H](O)C[C@H]4C(=O)NCc4ccc(-c5scnc5C)cc4)C(C)(C)C)nn3)C2)n2nccc2n1` [Compound 33.0] was over 10 µM; that for `CCC(CC)c1cc(N[C@H]2CC[C@H](NCc3cn(CCOCCOCCOCCOCC(=O)N[C@H](C(=O)N4C[C@H](O)C[C@H]4C(=O)NCc4ccc(-c5scnc5C)cc4)C(C)(C)C)nn3)C2)n2nccc2n1` [Compound 36.0] was over 10 µM; that for `CCC(CC)c1cc(N[C@H]2CC[C@H](NCc3cn(CCOCCOCCOc4cc(-c5scnc5C)ccc4CNC(=O)[C@@H]4C[C@@H](O)CN4C(=O)[C@H](C(C)C)N4Cc5ccccc5C4=O)nn3)C2)n2nccc2n1` [Compound 38.0] was over 10 µM.

For the compound `CCC(CC)c1cc(N[C@H]2CC[C@H](NCCOCCOCCOCCNc3cccc4c3C(=O)N(C3CCC(=O)NC3=O)C4=O)C2)n2ncc(Cl)c2n1` (stereo partly drawn) [Compound 11.0, 2-(2,6-dioxo-3-piperidyl)-4-[2-[2-[2-[2-[[(1S,3S)-3-[[3-chloro-5-(1-ethylpropyl)pyrazolo[1,5-a]pyrimidin-7-yl]amino]cyclopentyl]amino]ethoxy]ethoxy]ethoxy]ethylamino]isoindoline-1,3-dione], the DC50 in experiment [1] was under 10 µM.

As for `CCC(CC)c1cc(N[C@H]2CC[C@H](NCCOCCOCCOCCn3cc(CNc4cccc5c4C(=O)N(C4CCC(=O)NC4=O)C5=O)nn3)C2)n2nccc2n1` (stereo partly drawn) [Compound 12.0, 2-(2,6-dioxo-3-piperidyl)-4-[[1-[2-[2-[2-[2-[[(1S,3S)-3-[[5-(1-ethylpropyl)pyrazolo[1,5-a]pyrimidin-7-yl]amino]cyclopentyl]amino]ethoxy]ethoxy]ethoxy]ethyl]triazol-4-yl]methylamino]isoindoline-1,3-dione], in experiment [1], the DC50 is over 10 µM. Still for that read-out and setting: the value for `CCC(CC)c1cc(N[C@H]2CC[C@H](NCC(=O)NCc3cn(CCOCCOCCOCCOCC(=O)N[C@H](C(=O)N4C[C@H](O)C[C@H]4C(=O)NCc4ccc(-c5scnc5C)cc4)C(C)(C)C)nn3)C2)n2nccc2n1` [Compound 28.0] was over 10 µM; that for `CCC(CC)c1cc(N[C@H]2CC[C@H](NCC(=O)NCc3cn(CCOCCOc4cc(-c5scnc5C)ccc4CNC(=O)[C@@H]4C[C@@H](O)CN4C(=O)[C@H](C(C)C)N4Cc5ccccc5C4=O)nn3)C2)n2nccc2n1` [Compound 29.0] was over 10 µM. Same read-out and setting: the value for `CCC(CC)c1cc(N[C@H]2CC[C@H](NCc3cn(CCOCCOCCOCCOc4cc(-c5scnc5C)ccc4CNC(=O)[C@@H]4C[C@@H](O)CN4C(=O)[C@H](C(C)C)N4Cc5ccccc5C4=O)nn3)C2)n2nccc2n1` [Compound 39.0] was over 10 µM; that for `CCC(CC)c1cc(N[C@H]2CC[C@H](NCC(=O)NCCCc3cn(CCOCC(=O)N[C@H](C(=O)N4C[C@H](O)C[C@H]4C(=O)NCc4ccc(-c5scnc5C)cc4)C(C)(C)C)nn3)C2)n2ncc(Cl)c2n1` [Compound 43.0] was over 10 µM; that for `CCC(CC)c1cc(N[C@H]2CC[C@H](NCc3cn(CCOCCOCCNc4cccc5c4C(=O)N(C4CCC(=O)NC4=O)C5=O)nn3)C2)n2nccc2n1` (stereo partly drawn) [Compound 9.0, 2-(2,6-dioxo-3-piperidyl)-4-[2-[2-[2-[4-[[[(1S,3S)-3-[[5-(1-ethylpropyl)pyrazolo[1,5-a]pyrimidin-7-yl]amino]cyclopentyl]amino]methyl]triazol-1-yl]ethoxy]ethoxy]ethylamino]isoindoline-1,3-dione] was under 10 µM. `CCC(CC)c1cc(N[C@H]2CC[C@H](NCc3cn(CCOCCOc4cc(-c5scnc5C)ccc4CNC(=O)[C@@H]4C[C@@H](O)CN4C(=O)[C@H](C(C)C)N4Cc5ccccc5C4=O)nn3)C2)n2nccc2n1` [Compound 37.0]: the DC50 in experiment [1] is over 10 µM.
